Our source for the T/C values is PubChem BioAssay AID248 (DTP/NCI, 2004).

The assay has as its system L1210 leukemia ip in BDF1 mice, survival T/C. The assay can be described thus: NCI In Vivo Anticancer Drug Screen. Data for tumor model L1210 Leukemia (intraperitoneal) in B6D2F1 (BDF1) mice. Particulars: higher = longer survival. Summed up:
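Ratio derived from survival: compound-dosed mice over vehicle-dosed mice, all bearing a transplantable tumor.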

Where [1] appears, read: endpoint: mean survival time, dose: 100.0 mg/kg/injection, schedule: Q04DX003 (ip), vehicle: saline with Tween-80.
Where [2] appears, read: endpoint: mean survival time, dose: 200.0 mg/kg/injection, schedule: Q04DX003 (ip), vehicle: saline with Tween-80.
Setting [3] is: endpoint: mean survival time, dose: 100.0 mg/kg/injection, schedule: Q01DX009 (ip), vehicle: saline.
Where [4] appears, read: endpoint: mean survival time, dose: 200.0 mg/kg/injection, schedule: Q01DX009 (ip), vehicle: saline.
The mark [5] stands for this setting: endpoint: mean survival time, dose: 400.0 mg/kg/injection, schedule: Q01DX009 (ip), vehicle: saline.
The mark [6] stands for this setting: endpoint: mean survival time, dose: 100.0 mg/kg/injection, schedule: Q04DX003 (ip), vehicle: saline.
The mark [7] stands for this setting: endpoint: mean survival time, dose: 200.0 mg/kg/injection, schedule: Q04DX003 (ip), vehicle: saline.
Setting [8] is: endpoint: mean survival time, dose: 400.0 mg/kg/injection, schedule: Q04DX003 (ip), vehicle: saline.
Where [9] appears, read: endpoint: mean survival time, dose: 100.0 mg/kg/injection, schedule: Q01DX001 (ip), vehicle: saline.
The mark [10] stands for this setting: endpoint: mean survival time, dose: 200.0 mg/kg/injection, schedule: Q01DX001 (ip), vehicle: saline.
Setting [11] is: endpoint: mean survival time, dose: 400.0 mg/kg/injection, schedule: Q01DX001 (ip), vehicle: saline.

Each structure is given as a SMILES string. Values joined by “and” are separate entries in the source; they are usually repeats but may differ in a detail not shown here. Equal values may be shown once. Inconclusive results and toxic doses are left out. Peptide text beside a SMILES is read from it. * marks the point of attachment. Tos = Cc1ccc(S(=O)(=O)*)cc1

Take `Cc1cc(NCCCCCCNc2cc(C)nc3ccc(N)cc23)c2cc(N)ccc2n1`: the T/C is 117 % of control (endpoint: mean survival time, dose: 4.7 mg/kg/injection, schedule: Q01DX009 (ip), vehicle: saline with Tween-80); 118 % of control (endpoint: mean survival time, dose: 16.5 mg/kg/injection, schedule: Q01DX009 (ip), vehicle: saline); 152 % of control (endpoint: mean survival time, dose: 18.75 mg/kg/injection, schedule: Q01DX009 (ip), vehicle: saline with Tween-80); 176 % of control (endpoint: mean survival time, dose: 37.5 mg/kg/injection, schedule: Q01DX009 (ip), vehicle: saline with Tween-80); 164 % of control (endpoint: mean survival time, dose: 37.5 mg/kg/injection, schedule: Q01DX009 (ip), vehicle: saline); 160 % of control (endpoint: mean survival time, dose: 75.0 mg/kg/injection, schedule: Q01DX009 (ip), vehicle: acetone). Further, the T/C runs as follows: (endpoint: mean survival time, dose: 75.0 mg/kg/injection, schedule: Q01DX009 (ip), vehicle: saline with Tween-80) 150 % of control; (endpoint: mean survival time, dose: 75.0 mg/kg/injection, schedule: Q01DX009 (ip), vehicle: saline) 182 % of control; (endpoint: mean survival time, dose: 150.0 mg/kg/injection, schedule: Q01DX009 (ip), vehicle: acetone) 161 % of control; (endpoint: mean survival time, dose: 150.0 mg/kg/injection, schedule: Q01DX009 (ip), vehicle: saline with Tween-80) 102 % of control; (endpoint: mean survival time, dose: 180.0 mg/kg/injection, schedule: Q04DX003 (ip), vehicle: Klucel (hydroxypropylcellulose) (HPC)) 160 % of control; (endpoint: mean survival time, dose: 180.0 mg/kg/injection, schedule: Q04DX003 (ip), vehicle: saline with Tween-80) 152 % of control. The T/C runs as follows: (endpoint: mean survival time, dose: 266.0 mg/kg/injection, schedule: Q04DX003 (ip), vehicle: saline with Tween-80) 111 % of control; (endpoint: mean survival time, dose: 300.0 mg/kg/injection, schedule: Q01DX009 (ip), vehicle: saline with Tween-80) 94 % of control; (endpoint: mean survival time, dose: 400.0 mg/kg/injection, schedule: Q04DX003 (ip), vehicle: Klucel (hydroxypropylcellulose) (HPC)) 172 % of control; (endpoint: mean survival time, dose: 600.0 mg/kg/injection, schedule: Q04DX003 (ip), vehicle: Klucel (hydroxypropylcellulose) (HPC)) 197 % of control; (endpoint: mean survival time, dose: 600.0 mg/kg/injection, schedule: Q04DX003 (ip), vehicle: saline with Tween-80) 198 % of control; (endpoint: median survival time, dose: 4.0 mg/kg/injection, schedule: Q01DX001 (ip), vehicle: lactic acid) 101 % of control. Moreover, the T/C by setting is: (endpoint: median survival time, dose: 8.0 mg/kg/injection, schedule: Q01DX001 (ip), vehicle: lactic acid) 100 % of control; (endpoint: median survival time, dose: 16.0 mg/kg/injection, schedule: Q01DX001 (ip), vehicle: lactic acid) 103 % of control; (endpoint: median survival time, dose: 16.0 mg/kg/injection, schedule: Q01DX001 (oral), vehicle: citric acid) 97 % of control; (endpoint: median survival time, dose: 16.0 mg/kg/injection, schedule: Q01DX001 (oral), vehicle: lactic acid) 100 % of control; (endpoint: median survival time, dose: 32.0 mg/kg/injection, schedule: Q01DX001 (ip), vehicle: lactic acid) 111 % of control; (endpoint: median survival time, dose: 32.0 mg/kg/injection, schedule: Q01DX001 (oral), vehicle: citric acid) 103 % of control. Moreover, the T/C reads like this: (endpoint: median survival time, dose: 32.0 mg/kg/injection, schedule: Q01DX001 (oral), vehicle: lactic acid) 100 % of control; (endpoint: median survival time, dose: 64.0 mg/kg/injection, schedule: Q01DX001 (ip), vehicle: Klucel (hydroxypropylcellulose) (HPC)) 120 % of control; (endpoint: median survival time, dose: 64.0 mg/kg/injection, schedule: Q01DX001 (oral), vehicle: citric acid) 102 % of control; (endpoint: median survival time, dose: 64.0 mg/kg/injection, schedule: Q01DX001 (oral), vehicle: lactic acid) 103 % of control; (endpoint: median survival time, dose: 128.0 mg/kg/injection, schedule: Q01DX001 (ip), vehicle: Klucel (hydroxypropylcellulose) (HPC)) 153 % of control; (endpoint: median survival time, dose: 128.0 mg/kg/injection, schedule: Q01DX001 (oral), vehicle: citric acid) 97 % of control. In addition, the T/C is, setting by setting: (endpoint: median survival time, dose: 128.0 mg/kg/injection, schedule: Q01DX001 (oral), vehicle: lactic acid) 95 % of control; (endpoint: median survival time, dose: 256.0 mg/kg/injection, schedule: Q01DX001 (ip), vehicle: Klucel (hydroxypropylcellulose) (HPC)) 175 % of control; (endpoint: median survival time, dose: 256.0 mg/kg/injection, schedule: Q01DX001 (oral), vehicle: citric acid) 87 % of control; (endpoint: median survival time, dose: 256.0 mg/kg/injection, schedule: Q01DX001 (oral), vehicle: lactic acid) 94 % of control; (endpoint: median survival time, dose: 512.0 mg/kg/injection, schedule: Q01DX001 (ip), vehicle: Klucel (hydroxypropylcellulose) (HPC)) 180 % of control.

`Cc1ccc(OC(=O)C2=C(C(=O)Oc3ccc(C)cc3)CCC2)cc1`: the T/C by setting is: (endpoint: mean survival time, dose: 75.0 mg/kg/injection, schedule: Q01DX001 (ip), vehicle: saline) 95 % of control; (endpoint: mean survival time, dose: 150.0 mg/kg/injection, schedule: Q01DX001 (ip), vehicle: saline) 97 % of control; (endpoint: mean survival time, dose: 300.0 mg/kg/injection, schedule: Q01DX001 (ip), vehicle: saline) 95 % of control.

As to `CNC(=S)N/N=C/c1ccc(OC)c(OC)c1OC`, the T/C runs as follows: (endpoint: mean survival time, dose: 100.0 mg/kg/injection, schedule: Q01DX009 (ip), vehicle: Klucel (hydroxypropylcellulose) (HPC)) 102 % of control; (endpoint: mean survival time, dose: 200.0 mg/kg/injection, schedule: Q01DX009 (ip), vehicle: Klucel (hydroxypropylcellulose) (HPC)) 120 % of control; (endpoint: mean survival time, dose: 400.0 mg/kg/injection, schedule: Q01DX009 (ip), vehicle: Klucel (hydroxypropylcellulose) (HPC)) 98 % of control.

`C(#Cc1ccccc1)COCC1CO1` (stereo not given): the T/C by setting is: (endpoint: mean survival time, dose: 50.0 mg/kg/injection, schedule: Q04DX003 (ip), vehicle: saline with Tween-80) 95 % of control; under setting [1], 98 % of control; under setting [2], 91 % of control.

Regarding `Cc1ccc(S(=O)(=O)NCC(=O)NCC(=O)O)cc1` (Tos-Gly-Gly-OH), the T/C runs as follows: under setting [3], 105 % of control; under setting [4], 94 % of control; under setting [5], 96 % of control.

Turning to `CC12CC3(O)CCC1CCC2C(=O)C3` (stereo not given), the T/C reads like this: under setting [3], 95 % of control; under setting [6], 93 % of control; under setting [7], 96 % of control; under setting [5], 96 % of control; under setting [8], 105 % of control.

For `CCC12CCC(=O)NC1Cc1[nH]c3c(OC)cccc3c1C2` (stereo not given), the T/C reads like this: (endpoint: mean survival time, dose: 100.0 mg/kg/injection, schedule: Q01DX009 (ip), vehicle: saline sonified) 93 % of control; (endpoint: mean survival time, dose: 200.0 mg/kg/injection, schedule: Q01DX009 (ip), vehicle: saline sonified) 91 % of control; (endpoint: mean survival time, dose: 400.0 mg/kg/injection, schedule: Q01DX009 (ip), vehicle: saline sonified) 91 % of control.

Consider `O=C(CC(=O)Nc1ccccc1)Cc1ccccc1`, for which the T/C is, setting by setting: under setting [9], 102 % of control; under setting [3], 93 % of control; under setting [10], 88 % of control; under setting [4], 90 % of control; under setting [11], 93 % of control; under setting [5], 93 % of control.

Turning to `OC1CCCCC1[n+]1ccccc1` (stereo not given) (tested in a mixture with another compound), the T/C is 103 % of control under setting [9], 88 % of control under setting [10] and 101 % of control under setting [11].

As for `C/C=C/C[P+](Cc1ccccc1)(c1ccccc1)c1ccccc1`, the T/C (endpoint: mean survival time, dose: 3.13 mg/kg/injection, schedule: Q01DX009 (ip), vehicle: saline with Tween-80) was 103 % of control; the T/C (endpoint: mean survival time, dose: 12.5 mg/kg/injection, schedule: Q01DX009 (ip), vehicle: saline with Tween-80) was 120 % of control and 91 % of control.

For the molecule `CC(C(=O)c1ccccc1)C(c1ccccc1)N1CCOCC1` (stereo not given), the T/C is, setting by setting: under setting [1], 106 % of control; under setting [2], 101 % of control; (endpoint: mean survival time, dose: 400.0 mg/kg/injection, schedule: Q04DX003 (ip), vehicle: saline with Tween-80) 100 % of control.

Consider `CCC[N+](=CC1CCCCC1)CCC`, for which the T/C is 104 % of control under setting [6], 95 % of control under setting [7] and 91 % of control under setting [8].

For `C[C@]12CCCC[C@@H]1CC[C@@H]1[C@@H]2[C@@H](O)C[C@]2(C)[C@@H](O)CC[C@@H]12`, the T/C was 98 % of control (endpoint: mean survival time, dose: 50.0 mg/kg/injection, schedule: Q01DX009 (ip), vehicle: saline with Tween-80); 90 % of control (endpoint: mean survival time, dose: 100.0 mg/kg/injection, schedule: Q01DX009 (ip), vehicle: saline with Tween-80); 95 % of control (endpoint: mean survival time, dose: 200.0 mg/kg/injection, schedule: Q01DX009 (ip), vehicle: saline with Tween-80).
